Source: patent publication US20040152759A1, “Combination administration of an indolinone with a chemotherapeutic agent for cell proliferation disorders” (priority 2002, published 2004)
Where “and” joins values, the source holds several entries; their conditions need not be identical. Equal values may be shown once. Where a name gives a salt, the structure may show the parent alone. Read-outs that look alike come from different tables or passages of the source.

Assays:
[1] = tested on: LS174t human colon carcinoma; format: in vivo; conditions: Day 23
Protocol: Methods for LS174t Human Colon Cancer Model
(§1) 1×10^5 to 1×10^6 tumor cells were injected into the subcutaneous region of the hind flank of female nu/nu mice (n=10). Tumor growth was monitored twice a week for 2-4 weeks by caliper measurement.
(§2) Tumors were grown to a volume of approximately 100 mm^3 prior to dosing.

[2] = tested on: MX-1 human breast carcinoma; format: in vivo
Source text: Methods for MX1 Human Breast Cancer Model
Mice/Husbandry: Female nu/nu mice (Harlan), 13 weeks of age (at pair-match; Day 1), were fed ad libitum water and an irradiated standard rodent diet. Mice were housed in static microisolators on a 12-hour light cycle. The animal care and use program specifically complies with recommendations of the Guide for Care and Use of Laboratory Animals with respect to restraint, husbandry, surgical procedures, feed and fluid regulation, and veterinary care is AAALAC accredited.
Tumor Implantation: Mice were implanted subcutaneously with 1 mm^3 MX-1 human breast carcinoma fragments in the flank. Tumors were monitored initially twice weekly, and then daily as the neoplasms reached the desired size, approximately 100 mg. […] Estimated tumor weight was calculated using the formula:
Tumor Weight(mg)=w^2×L divided by 2
where w=width and L=length in mm of a MX-1 carcinoma.
as §2
This example evaluates the effects of combined treatment of Compound 1 and Docetaxel on efficacy and toxicity in a human breast cancer model. Tumors were grown to a volume of approximately 100 mm^3 prior to dosing.
This example evaluates the effects of combined treatment of Compound 1 and 5-FU on efficacy and toxicity in a human breast cancer model
as §2
This example evaluates the effects of combined treatment of Compound 1 and Doxorubicin Hydrochloride on efficacy and toxicity in a human breast cancer model.
Tumors were grown to a volume of approximately 100 mm^3 prior to dosing. […] (see FIG. 6).

NCI-H526 SCLC cells = experiment: NCI-H526 small cell lung carcinoma subcutaneous xenograft model; format: in vivo, human (xenograft in athymic nu/nu mice); conditions: dosing began day 18 after implantation
Protocol: Methods for NCI-H526-Human Small Cell Lung Carcinoma Model
1×10^5 to 1×10^6 tumor cells were injected into the subcutaneous region of the hind flank of female nu/nu mice (n=10). Tumor growth was monitored twice a week for 2-4 weeks by caliper measurements.
NCI-H526 SCLC cells were cultured using standard technique in RPMI 1640 supplemented with 10% fetal bovine serum, 2 mM glutamine, 1 mM sodium pyruvate (Life Technologies Inc., Gaithersburg, Md.), and maintained routinely in a humidified chamber at 37° C. and 5% carbon dioxide.
Cells to be implanted in mice were harvested from cell culture flasks during exponential growth, washed once with sterile phosphate-buffered saline (PBS), counted, and resuspended in PBS to a suitable concentration prior to implantation.
Nine to twelve week old female athymic nu/nu mice purchased from Charles River Laboratories (Wilmington, Mass.) were used.
Mice received subcutaneous injections into the hind flank on Day 0 with 5×10^6 NCI-H526 cells. Subcutaneous tumor-bearing athymic mice (250-300 mm^3 tumor volume) were treated either PO once daily with Compound 1 to the end of the study, intraperitoneally once daily with Cisplatin for the first 5 days, or a combination of the two. […] Tumor growth was measured twice weekly using Vernier calipers for the duration of the treatment. Tumor volumes were calculated as the product of length× width× height.

MDA-MB-435 tumor cells = experiment: MDA-MB-435 orthotopic human breast carcinoma bone marrow colonization model (survival); format: in vivo, human (xenograft in nu/nu mice); conditions: vehicle 46 days
Protocol: Methods for the MDA-MB-435 Human Breast Cancer Model
1×10^5 MDA-MB-435 tumor cells were injected into the left cardiac ventricle of female nu/nu mice (n=10). Mice were monitored for weight loss (>20%) and hind limb paralysis as an indicator of bone marrow colonization.
This example evaluates the effects of combined treatment of Compound 1 and Docetaxel on efficacy and toxicity in a human breast cancer model. Efficacy is indicated by improved survival, which, in turn, is indicated by hind-limb paralysis or weight loss (>20%) due to bone marrow colonization of tumor cells.
Tumor cells were injected into the mammary fat pad of female nu/nu mice and mice were monitored for weight loss (>20%) and hind limb paralysis as an indicator of bone marrow colonization of tumor cells.
Tumor cells were injected into the left cardiac ventricle of female nu/nu mice and mice were monitored for weight loss (>20%) and hind limb paralysis as an indicator of bone marrow colonization

[3] = tested on: HT-29 human colon carcinoma; format: in vivo; conditions: Compound 1 20 mg/kg PO QD to end, monotherapy, Day 38
Protocol: Methods for HT-29 Human Colon Cancer Model
as §1, §2

## CCc1c2c(nc3ccc(OC(=O)N4CCC(N5CCCCC5)CC4)cc13)-c1cc3c(c(=O)n1C2)COC(=O)[C@]3(O)CC [CPT-11, Irinotecan, reference compound]
[1]; CPT-11 100 mg/kg IP QWK x 3, monotherapy, 100 mg/kg
  % Inhibition: 64% and 63.6%

## O=c1[nH]cc(F)c(=O)[nH]1 [Compound 5-FU, 5-Fluorouracil]
[2]; Biological Example 3, 5-FU 100 mg/kg IV QWK x 3, monotherapy, Day 15
  % Inhibition: 45%

## CCN(CC)CCNC(=O)c1c(C)[nH]c(/C=C2\C(=O)Nc3ccc(F)cc32)c1C [Compound 1, 5-(5-Fluoro-2-oxo-1,2-dihydroindol-3-ylidenemethyl)-2,4-dimethyl-1H-pyrrole-3-carboxylic acid(2-diethylamino-ethyl)amide]
[2]; Biological Example 1, Compound 1 40 mg/kg PO QD to end, monotherapy, Day 20, 40 mg/kg
  % Inhibition: 52% and 53%
[2]; Biological Example 2, Compound 1 40 mg/kg PO QD to end, monotherapy, Day 17
  % Inhibition: 63%
[2]; Biological Example 3, Compound 1 40 mg/kg PO QD to end, monotherapy, Day 15
  % Inhibition: 57%
[2]; Biological Example 4, Compound 1 40 mg/kg PO QD to end, monotherapy, Day 14
  % Inhibition: 62%
NCI-H526 SCLC cells; Compound 1 40 mg/kg PO QD, monotherapy
  Day tumor reached 900 mm^3: 41 days
MDA-MB-435 tumor cells; Compound 1 40 mg/kg PO QD to end, monotherapy
  Median Survival: 52 days
[1]; Compound 1 40 mg/kg PO QD to end, monotherapy, 40 mg/kg
  % Inhibition: 68% and 67.9%
[3]
  % Inhibition: 78% and 77.8%

## N.N.[Cl][Pt][Cl] [Cisplatin, reference compound]
NCI-H526 SCLC cells; Cisplatin 1.5 mg/kg IP QD x 5, monotherapy
  Day tumor reached 900 mm^3: 48 days

## CC(=O)O[C@@]12CO[C@@H]1C[C@H](O)[C@@]1(C)C(=O)[C@H](O)C3=C(C)[C@@H](OC(=O)[C@H](O)[C@@H](NC(=O)OC(C)(C)C)c4ccccc4)C[C@@](O)([C@@H](OC(=O)c4ccccc4)[C@H]21)C3(C)C [Docetaxel]
[2]; Biological Example 1, Docetaxel 10 mg/kg IV QWK x 3, monotherapy, Day 16
  % Inhibition: 60%
[2]; Biological Example 1, Docetaxel 15 mg/kg IV QWK x 3, monotherapy, Day 16
  % Inhibition: 95%
[2]; Biological Example 2, Docetaxel 10 mg/kg IV QWK x 3, monotherapy, Day 14
  % Inhibition: 36%
[2]; Biological Example 2, Docetaxel 15 mg/kg IV QWK x 3, monotherapy, Day 17
  % Inhibition: 90%
MDA-MB-435 tumor cells; Docetaxel 5 mg/kg IP QWK x 3, monotherapy
  Median Survival: 52 days

## COc1cccc2c1C(=O)c1c(O)c3c(c(O)c1C2=O)C[C@@](O)(C(=O)CO)C[C@@H]3O[C@H]1C[C@H](N)[C@H](O)[C@H](C)O1 [Doxorubicin Hydrochloride]
[2]; Biological Example 4, Doxorubicin Hydrochloride 4 mg/kg IV QOD x 3, monotherapy, Day 14
  % Inhibition: 48%
